Earlier results in patent publication EP0523846A2, “1,4-Benzodiazepines with 5-membered heterocyclic rings” (MERCK & CO. INC., priority 1991, dated 1993).

Conditions: background statement citing Deschodt-Lanckman et al., Reg. Pept., 2, 15 (1981)

## CSCC[C@H](NC(=O)[C@H](Cc1ccc(OS(=O)(=O)O)cc1)NC(=O)[C@@H](N)CC(=O)O)C(=O)NCC(=O)N[C@@H](Cc1c[nH]c2ccccc12)C(=O)N[C@@H](CCSC)C(=O)N[C@@H](CC(=O)O)C(=O)N[C@@H](Cc1ccccc1)C(N)=O [CCK-8s, H-Asp-Tyr(SO₃H)-Met-Gly-Trp-Met-Asp-Phe-NH₂]
  half-life: less than 1 hour
